In patent US9149475B2, “Protein kinase C inhibitors and uses thereof” (Rigel Pharmaceuticals, Inc., priority 2009, dated 2015):
pIC50: −log10 of the molar value.

The compounds below were run on Human primary T cells (assay: IL-2 ELISA, human primary T cell, anti-CD3+CD28+ (whole cell assay)). Settings: Homo sapiens, T-cell, 24 h, human primary T cells stimulated with anti-CD3 + anti-CD28, 24 hours.
Format: cell-based
Experimental: (§1) Human primary T cells were prepared as follows. Whole blood was obtained from a healthy volunteer, mixed 1:1 with PBS, layered on to Ficoll Hypaque (Amersham Pharmacia Biotech, Piscataway, N.J., Catalog #17-1440-03) in 2:1 blood/PBS:ficoll ratio and centrifuged for 30 minutes at 4° C. at 1750 rpm. The cells at the serum:ficoll interface were recovered and washed twice with 5 volumes of PBS. These freshly isolated human peripheral blood mononuclear cells were cultured in Yssel's medium containing 40 U/mL IL2 in a flask pre-coated with 1 μg/mL αCD3 and 5 μg/mL αCD28 (Anti-Human CD3, BD Pharmingen Catalog #555336, Anti-Human CD28, Beckman Coulter Catalog #IM1376). The cells were stimulated for 3-4 days, then transferred to a fresh flask and maintained in RPMI (RPMI-1640 with L-Glutamine; Mediatech, Inc., Herndon Va., cat. #10-040-CM) with 10% FBS and 40 U/mL IL-2. The primary T-cells were then washed twice with PBS to remove the IL-2.
Human primary T cells (100,000 cells per well) were pre-incubated with or without test compound in Yssel's medium for 1 hr at 37° C. Cells were then stimulated by transferring them to round-bottom 96-well plates pre-coated with 1 μg/ml μCD3 and 5 μg/ml μCD28. For counter assay, cells were instead stimulated by adding 8× stock solutions of PMA and ionomycin in Yssels (for final concentrations of 0.5 ng/ml PMA and 0.1 μM ionomycin, both from Calbiochem). Cells were incubated at 37° C. for 24 hours before 100 μL supernatants were harvested for quantification of IL-2 by ELISA using Human IL-2 Duoset ELISA Kit from R and D Systems, Cat. #DY202E.
as §1, with “Human primary T cell isolation and culture: Human primary” for “Human primary”, “for 30 min at 4°” for “for 30 minutes at 4°”, “at the serum: ficoll interface were” for “at the serum:ficoll interface were”
Primary T cell stimulation and IL2 ELISA: Human primary T cells (100,000 cells per well) were pre-incubated with or without test compound in Yssel's medium for 1 hr at 37° C. Cells were then stimulated by transferring them to round-bottom 96-well plates pre-coated with 1 μg/ml αCD3 and 5 μg/ml αCD28. For counter assay, cells were instead stimulated by adding 8× stock solutions of PMA and ionomycin in Yssels (for final concentrations of 0.5 ng/ml PMA and 0.1 μM ionomycin, both from Calbiochem). Cells were incubated at 37° C. for 24 hours before 100 μL supernatants were harvested for quantification of IL-2 by ELISA using Human IL-2 Duoset ELISA Kit from R and D Systems, Cat. #DY202E.

SMILES | pIC50
CN1C(C)(C)CC(Nc2nc(Nc3ccc(OCCCN4CCOCC4)c(OC(F)F)c3)ncc2F)CC1(C)C [Compound I-48, N2-(4-(3-morpholinopropoxy)-3-(difluoromethoxy)phenyl)-5-fluoro-N4-(1,2,2,6,6-pentamethylpiperidin-4-yl)pyrimidine-2,4-diamine] | > 6.60
CN1C(C)(C)CC(Nc2nc(Nc3cc(OCCCn4cccc4)cc(C(F)(F)F)c3)ncc2F)CC1(C)C [Compound I-49, N2-(3-(3-(1H-pyrrol-1-yl)propoxy)-5-(trifluoromethyl)phenyl)-5-fluoro-N4-(1,2,2,6,6-pentamethylpiperidin-4-yl)pyrimidine-2,4-diamine] | 6.00 to 6.30
CC1(C)CC(Nc2nc(Nc3ccc(OCCN4CCNC4=O)c(OC(F)F)c3)ncc2F)CC(C)(C)N1 [Compound I-50, 1-(2-(4-(4-(2,2,6,6-tetramethylpiperidin-4-ylamino)-5-fluoropyrimidin-2-ylamino)-2-(difluoromethoxy)phenoxy)ethyl)imidazolidin-2-one] | < 6.00
CN1C(C)(C)CC(Nc2nc(Nc3ccc(Oc4ccncc4)c(OC(F)F)c3)ncc2C#N)CC1(C)C [Compound I-53, 4-(1,2,2,6,6-pentamethylpiperidin-4-ylamino)-2-(3-(difluoromethoxy)-4-(pyridin-4-yloxy)phenylamino)pyrimidine-5-carbonitrile] | < 6.00
CN1C(C)(C)CC(Nc2nc(Nc3ccc(OCCn4cncn4)c(OC(F)F)c3)ncc2C#N)CC1(C)C [Compound I-54, 4-(1,2,2,6,6-pentamethylpiperidin-4-ylamino)-2-(4-(2-(1H-1,2,4-triazol-1-yl)ethoxy)-3-(difluoromethoxy)phenylamino)pyrimidine-5-carbonitrile] | 6.00 to 6.30
CN1C(C)(C)CC(Nc2nc(Nc3ccc(OCCn4ccnn4)c(OC(F)F)c3)ncc2C#N)CC1(C)C [Compound I-55, 4-(1,2,2,6,6-pentamethylpiperidin-4-ylamino)-2-(4-(2-(1H-1,2,3-triazol-1-yl)ethoxy)-3-(difluoromethoxy)phenylamino)pyrimidine-5-carbonitrile] | 6.30 to 6.60
CN1C(C)(C)CC(Nc2nc(Nc3ccc(OCCN4CCCC4=O)c(C(F)(F)F)c3)ncc2F)CC1(C)C [Compound I-56, 1-(2-(4-(4-(1,2,2,6,6-pentamethylpiperidin-4-ylamino)-5-fluoropyrimidin-2-ylamino)-2-(trifluoromethyl)phenoxy)ethyl)pyrrolidin-2-one] | 6.00 to 6.30
CC1(C)CC(Nc2nc(Nc3ccc(OCCN4CCCC4=O)c(C(F)(F)F)c3)ncc2F)CC(C)(C)N1 [Compound I-57, 1-(2-(4-(4-(2,2,6,6-tetramethylpiperidin-4-ylamino)-5-fluoropyrimidin-2-ylamino)-2-(trifluoromethyl)phenoxy)ethyl)pyrrolidin-2-one] | < 6.00
CC1(C)CC(Nc2nc(Nc3ccc(Oc4ccncc4)c(OC(F)F)c3)ncc2C#N)CC(C)(C)N1 [Compound I-58, 4-(2,2,6,6-tetramethylpiperidin-4-ylamino)-2-(3-(difluoromethoxy)-4-(pyridin-4-yloxy)phenylamino)pyrimidine-5-carbonitrile] | 6.00 to 6.30
CN1C(C)(C)CC(Nc2nc(Nc3ccc(Oc4cccnc4)c(C(F)(F)F)c3)ncc2F)CC1(C)C [Compound I-61, 5-fluoro-N2-(3-(trifluoromethyl)-4-(pyridin-3-yloxy)phenyl)-N4-(1,2,2,6,6-pentamethylpiperidin-4-yl)pyrimidine-2,4-diamine] | 6.00 to 6.30
CN1C(C)(C)CC(Nc2nc(Nc3ccc(Oc4ccncc4)c(C(F)(F)F)c3)ncc2F)CC1(C)C [Compound I-62, 5-fluoro-N2-(3-(trifluoromethyl)-4-(pyridin-4-yloxy)phenyl)-N4-(1,2,2,6,6-pentamethylpiperidin-4-yl)pyrimidine-2,4-diamine] | < 6.00
CC1(C)CC(Nc2nc(Nc3ccc(-c4cccnc4)c(OC(F)F)c3)ncc2F)CC(C)(C)N1 [Compound I-63, N2-(3-(difluoromethoxy)-4-(pyridin-3-yl)phenyl)-5-fluoro-N4-(2,2,6,6-tetramethylpiperidin-4-yl)pyrimidine-2,4-diamine] | 6.30 to 6.60
CC1(C)CC(Nc2nc(Nc3ccc(OCCCN4CCOCC4)c(OC(F)F)c3)ncc2F)CC(C)(C)N1CC(F)(F)F [Compound I-66, N2-(4-(3-morpholinopropoxy)-3-(difluoromethoxy)phenyl)-5-fluoro-N4-(1-(2,2,2-trifluoroethyl)-2,2,6,6-tetramethylpiperidin-4-yl)pyrimidine-2,4-diamine] | < 6.00

The next lines start with the values.

pIC50 | SMILES
6.00 to 6.30 | CN1C(C)(C)CC(Nc2nc(Nc3ccc(OCCN4CCNC4=O)c(OC(F)F)c3)ncc2F)CC1(C)C [Compound I-51, 1-(2-(4-(4-(1,2,2,6,6-pentamethylpiperidin-4-ylamino)-5-fluoropyrimidin-2-ylamino)-2-(difluoromethoxy)phenoxy)ethyl)imidazolidin-2-one]
> 6.60 | CN1C(C)(C)CC(Nc2nc(Nc3ccc(Oc4cccnc4)c(OC(F)F)c3)ncc2C#N)CC1(C)C [Compound I-52, 4-(1,2,2,6,6-pentamethylpiperidin-4-ylamino)-2-(3-(difluoromethoxy)-4-(pyridin-3-yloxy)phenylamino)pyrimidine-5-carbonitrile]
< 6.00 | CC1(C)CC(Nc2nc(Nc3ccc(Oc4cccnc4)c(C(F)(F)F)c3)ncc2F)CC(C)(C)N1 [Compound I-59, 5-fluoro-N2-(3-(trifluoromethyl)-4-(pyridin-3-yloxy)phenyl)-N4-(2,2,6,6-tetramethylpiperidin-4-yl)pyrimidine-2,4-diamine]
6.00 to 6.30 | CC1(C)CC(Nc2nc(Nc3ccc(OCCN4CCCC4)c(OC(F)F)c3)ncc2F)CC(C)(C)N1 [Compound I-60, N2-(4-(2-(pyrrolidin-1-yl)ethoxy)-3-(difluoromethoxy)phenyl)-5-fluoro-N4-(2,2,6,6-tetramethylpiperidin-4-yl)pyrimidine-2,4-diamine]
> 6.60 | CN1C(C)(C)CC(Nc2nc(Nc3ccc(-c4cccnc4)c(OC(F)F)c3)ncc2F)CC1(C)C [Compound I-64, N2-(3-(difluoromethoxy)-4-(pyridin-3-yl)phenyl)-5-fluoro-N4-(1,2,2,6,6-pentamethylpiperidin-4-yl)pyrimidine-2,4-diamine]
6.00 to 6.30 | CC1(C)CC(Nc2nc(Nc3ccc(OCCN4CCOCC4)c(C(F)(F)F)c3)ncc2F)CC(C)(C)N1 [Compound I-65, N2-(4-(2-morpholinoethoxy)-3-(trifluoromethyl)phenyl)-5-fluoro-N4-(2,2,6,6-tetramethylpiperidin-4-yl)pyrimidine-2,4-diamine]

Same assay, conditions: human primary T cells stimulated with anti-CD3 + anti-CD28, 24 hours

pIC50 | SMILES
< 6.00 | CC1(C)CC(Nc2nc(Nc3ccc(F)c(-n4cnnn4)c3)ncc2C(N)=O)CC(C)(C)N1 [Compound I-67, 5-aminocarbonyl-N2-[4-fluoro-3-(1H-tetrazol-1-yl)]phenyl-N4-(2,2,6,6-tetramethylpiperidin-4-yl)-2,4-pyrimidinediamine]
< 6.00 | CCOc1ccc(Nc2ncc(C(N)=O)c(NC3CC(C)(C)NC(C)(C)C3)n2)cc1-n1nnnc1CC [Compound I-68, 5-aminocarbonyl-N2-[4-ethoxy-3-(5-ethyl-1H-tetrazol-1-yl)]phenyl-N4-(2,2,6,6-tetramethylpiperidin-4-yl)-2,4-pyrimidinediamine]
> 6.60 | CN1C(C)(C)CC(Nc2nc(Nc3cccc(-n4nnnc4SCC(F)(F)F)c3)ncc2F)CC1(C)C [Compound I-69, 5-fluoro-N4-(1,2,2,6,6-pentamethylpiperidin-4-yl)-N2-{3-[5-(2,2,2-trifluoroethyl)thio]-1H-tetrazol-1-yl}phenyl-2,4-pyrimidinediamine]
> 6.60 | CC1(C)CC(Nc2nc(Nc3cccc(-n4nnnc4SCC(F)(F)F)c3)ncc2F)CC(C)(C)N1 [Compound I-70, 5-fluoro-N4-(2,2,6,6-tetramethylpiperidin-4-yl)-N2-{3-[5-(2,2,2-trifluoroethyl)thio]-1H-tetrazol-1-yl}phenyl-2,4-pyrimidinediamine]
